Experimental findings from patent publication US20240398757A1 (COCRYSTAL PHARMA, INC., priority 2022, published 2024) are described below.

In general, IC50 refers to the concentration that inhibits the measured activity by half. Lower therefore signals greater potency in that assay.

This test has as its target T1, SARS2 protease (Severe acute respiratory syndrome coronavirus 2, UniProt P0DTD1).
T1 construct: SARS2 protease was added to a final concentration of 30 nM
Kind of test: SARS-CoV-2 protease inhibition assay (SARS2 FRET protease assay). It is filed as biochemical. Particulars: IC50 (μM), SARS2 protease 30 nM, peptide substrate 1.3 μM, 120 minutes at 37° C., compounds 20 μM to 0.075 nM.
For `CC(C)(c1cccc(Cl)c1)C(OC(=O)N[C@@H](Cc1ccc(Cl)c(Cl)c1)C(=O)N[C@H](C=O)C[C@@H]1CCNC1=O)c1ccccc1` (stereo partly drawn) [Compound A279, 2-(3-chlorophenyl)-2-methyl-1-phenylpropyl ((S)-3-(3,4-dichlorophenyl)-1-oxo-1-(((S)-1-oxo-3-((S)-2-oxopyrrolidin-3-yl)propan-2-yl)amino)propan-2-yl)carbamate], the IC50 turned out to be 423 nM. `CC(C)C[C@H](NC(=O)O[C@@H](c1ccccc1)C(F)(F)c1cccc(C2CC2)c1)C(=O)N[C@@H](C[C@@H]1CCNC1=O)C(=O)C(=O)NC1CC1` [Compound A288] yielded an IC50 of 260 nM. Against the preceding compound, the IC50 is about 1.6-fold lower. In the case of `CC(C)C[C@H](NC(=O)O[C@H](c1ccc(Cl)cc1)C1(c2cccc(Cl)c2)CC1)C(=O)N[C@@H](C[C@@H]1CCNC1=O)C(=O)C(=O)NC1CC1` [Compound A60], half-maximal inhibition (IC50) was put at 1910 nM. This IC50 is about 7.3-fold higher than that of the compound before. In the case of `CCNC(=O)C(=O)[C@H](C[C@@H]1CCNC1=O)NC(=O)[C@H](CC1CC1)NC(=O)O[C@@H](c1ccccc1)C(F)(F)c1cccc(Cl)c1` [Compound A174] it was 1.4 nM; in that of `CCCC[C@H](NC(=O)O[C@@H](c1ccccc1)C(F)(F)c1cccc(Cl)c1)C(=O)N[C@@H](C[C@@H]1CCNC1=O)C(OC(=O)CC)S(=O)(=O)O` (some centres unmarked) [Compound A213], 5020 nM; in that of `CC(C)C[C@H](NC(=O)O[C@@H](c1ccccc1)C(F)(F)c1cccc(Cl)c1)C(=O)N[C@@H](C[C@@H]1CCNC1=O)C(=O)C(=O)NC1CC1` [Compound A317], 0.4 nM.

Consider `CCCC[C@H](NC(=O)O[C@@H](c1ccc(F)cc1)C(F)(F)c1cccc(Cl)c1)C(=O)N[C@H](C=O)C[C@@H]1CCNC1=O` [Compound A159], for which the concentration for half-maximal inhibition (IC50) worked out at 3 nM. In turn, `CC(C)C[C@H](NC(=O)O[C@@H](c1ccccc1)C(F)(F)c1cccc(Cl)c1)C(=O)N[C@H](C=O)C[C@@H]1CCNC1=O` [Compound A72, 2-(3-chlorophenyl)-2,2-difluoro-1-phenylethyl ((S)-4-methyl-1-oxo-1-(((S)-1-oxo-3-((S)-2-oxopyrrolidin-3-yl)propan-2-yl)amino)pentan-2-yl)carbamate] came in with a half-inhibitory concentration (IC50) of less than 0.01 nM. For `O=C[C@H](C[C@@H]1CCCNC1=O)NC(=O)[C@H](CC1CCCCC1)NC(=O)O[C@H](c1ccccc1)C(F)(F)c1cccc(Cl)c1` [Compound A155], the IC50 amounted to 611 nM. This counts as sub-micromolar. In turn, `CCCC[C@H](NC(=O)OC(c1cnn(C)c1)C(F)(F)c1cccc(Cl)c1)C(=O)N[C@@H](C[C@@H]1CCNC1=O)C(=O)C(=O)NCC` (some centres unmarked) [Compound A319] had a concentration for half-maximal inhibition (IC50) of 1 nM. With `O=C(N[C@@H](Cc1ccccc1)C(=O)N[C@@H](C[C@@H]1CCNC1=O)C(=O)C(=O)NC1CC1)OC(c1ccccc1)C(F)(F)c1cccc(Cl)c1` (stereo partly drawn) [Compound A241, 2-(3-chlorophenyl)-2,2-difluoro-1-phenylethyl ((S)-1-(((S)-4-(cyclopropylamino)-3,4-dioxo-1-((S)-2-oxopyrrolidin-3-yl)butan-2-yl)amino)-1-oxo-3-phenylpropan-2-yl)carbamate] the figure was 614 nM; with `CCCC[C@H](NC(=O)O[C@H](c1cccnc1)C(F)(F)c1cccc(Cl)c1)C(=O)N[C@H](C=O)C[C@@H]1CCNC1=O` [Compound A268, (R)-2-(3-chlorophenyl)-2,2-difluoro-1-(pyridin-3-yl)ethyl ((S)-1-oxo-1-(((S)-1-oxo-3-((S)-2-oxopyrrolidin-3-yl)propan-2-yl)amino)hexan-2-yl)carbamate], 0.08 nM.

For `O=C(N[C@@H](CC1CCCCC1)C(=O)N[C@@H](C[C@@H]1CCNC1=O)C(=O)C(=O)NC1CC1)O[C@H](c1ccccc1)C(F)(F)c1cccc(F)c1` [Compound A237], the IC50 was 3 nM. In the case of `CCCC[C@H](NC(=O)OC(c1ccccc1)C(F)(F)c1cccc(F)c1)C(=O)N[C@H](C=O)C[C@@H]1CCNC1=O` (stereo partly drawn) [Compound A77, 2,2-difluoro-2-(3-fluorophenyl)-1-phenylethyl ((S)-1-oxo-1-(((S)-1-oxo-3-((S)-2-oxopyrrolidin-3-yl)propan-2-yl)amino)hexan-2-yl)carbamate] it was 9 nM; in that of `CCCC[C@H](NC(=O)OC(c1ccccc1)C(F)(F)c1cccc(Cl)c1)C(=O)N[C@@H](C[C@@H]1CCCNC1=O)C(=O)C(=O)NC1CC1` (some centres unmarked) [Compound A127], 10 nM; in that of `CCC(CC)(c1cccc(Cl)c1)C(OC(=O)N[C@@H](CC(C)C)C(=O)N[C@@H](C[C@@H]1CCNC1=O)C(=O)C(=O)NC1CC1)c1cccc(Cl)c1` (some centres unmarked) [Compound A35], 1070 nM. Take `CCNC(=O)C(=O)[C@H](C[C@H]1CCNC1=O)NC(=O)[C@H](CC1CCCCC1)NC(=O)OC(c1ccccc1)C(F)(F)c1cccc(Cl)c1` (some centres unmarked) [Compound A207]: the IC50 worked out at 764 nM.

`O=C(N[C@@H](CCC(F)F)C(=O)N[C@@H](C[C@@H]1CCNC1=O)C(=O)C(=O)NC1CC1)OC(c1ccccc1)C(F)(F)c1cccc(Cl)c1` (stereo partly drawn) [Compound A179, 2-(3-chlorophenyl)-2,2-difluoro-1-phenylethyl ((S)-1-(((S)-4-(cyclopropylamino)-3,4-dioxo-1-((S)-2-oxopyrrolidin-3-yl)butan-2-yl)amino)-5,5-difluoro-1-oxopentan-2-yl)carbamate] gave an IC50 of 6 nM. On to `CCCC[C@H](NC(=O)O[C@@H](c1ccncc1)C(F)(F)c1cccc(Cl)c1)C(=O)N[C@@H](C[C@@H]1CCNC1=O)C(=O)C(=O)NC1CC1` [Compound A303], for which the IC50 is 55 nM. Turning to `CCCC[C@H](NC(=O)O[C@@H](c1ccccc1)C(F)(F)c1cccc(Cl)c1)C(=O)N[C@@H](C[C@@H]1CCCNC1=O)C(=O)C(=O)NC1CC1` [Compound A195], the IC50 worked out at 211 nM. Compound `CC(C)C[C@H](NC(=O)OC(c1ccc(Cl)cc1)C1(c2cccc(Cl)c2)CCCCC1)C(=O)N[C@H](C=O)C[C@@H]1CCNC1=O` (some centres unmarked) [Compound A49] gave an IC50 of 380 nM. `CCNC(=O)C(=O)[C@H](C[C@@H]1CCNC1=O)NC(=O)[C@H](Cc1ccc(Cl)cc1)NC(=O)OC(c1ccccc1)C(F)(F)c1cccc(Cl)c1` (stereo partly drawn) [Compound A263, 2-(3-chlorophenyl)-2,2-difluoro-1-phenylethyl ((S)-3-(4-chlorophenyl)-1-(((S)-4-(ethylamino)-3,4-dioxo-1-((S)-2-oxopyrrolidin-3-yl)butan-2-yl)amino)-1-oxopropan-2-yl)carbamate] displayed a concentration for half-maximal inhibition (IC50) of 7020 nM. Regarding `CCNC(=O)C(=O)[C@H](C[C@@H]1CCNC1=O)NC(=O)[C@H](CC1CCCC1)NC(=O)O[C@@H](c1ccccc1)C(F)(F)c1cccc(Cl)c1` [Compound A220, (S)-2-(3-chlorophenyl)-2,2-difluoro-1-phenylethyl ((S)-3-cyclopentyl-1-(((S)-4-(ethylamino)-3,4-dioxo-1-((S)-2-oxopyrrolidin-3-yl)butan-2-yl)amino)-1-oxopropan-2-yl)carbamate], the IC50 was 183 nM. `CCCC[C@H](NC(=O)OC(c1cccc(F)c1)C(F)(F)c1cccc(Cl)c1)C(=O)N[C@@H](C[C@@H]1CCNC1=O)C(=O)C(=O)NC1CC1` (some centres unmarked) [Compound A106]: the IC50 is 170 nM. In turn, `CC(C)C[C@H](NC(=O)OC(c1ccc(F)cc1)C(F)(F)c1cccc(Cl)c1)C(=O)N[C@H](C=O)C[C@@H]1CCNC1=O` (some centres unmarked) [Compound A1] showed an IC50 of 0.1 nM. Take `CCCCC[C@H](NC(=O)O[C@H](c1ccccc1)C(F)(F)c1cccc(Cl)c1)C(=O)N[C@H](C=O)C[C@@H]1CCNC1=O` [Compound A218]: the half-maximal inhibitory concentration (IC50) amounted to 1 nM. In turn, `CCC[C@H](NC(=O)O[C@@H](c1ccccc1)C(F)(F)c1cccc(F)c1)C(=O)N[C@H](C=O)C[C@@H]1CCNC1=O` [Compound A166] returned an IC50 of 2.5 nM. In the case of `O=C(N[C@@H](CC1CCCCC1)C(=O)N[C@@H](C[C@H]1CCNC1=O)C(=O)C(=O)NC1CC1)OC(c1ccccc1)C(F)(F)c1cccc(Cl)c1` (some centres unmarked) [Compound A169], the concentration for half-maximal inhibition (IC50) turned out to be 1250 nM. `CCCC[C@H](NC(=O)OC(c1ccccc1)C(F)(F)c1cccc(Cl)c1)C(=O)N[C@H](C=O)CC1CC(C)(C)NC1=O` (some centres unmarked) [Compound A81] registered an IC50 of 470 nM. As for `CC(C)C[C@H](NC(=O)OC(c1ccc(Cl)cc1)C1(c2cccc(Cl)c2)CCN(C(=O)OC(C)(C)C)CC1)C(=O)N[C@H](C=O)C[C@@H]1CCNC1=O` (some centres unmarked) [Compound A85], the half-inhibitory concentration (IC50) came to 460 nM.

Compound `O=C[C@H](C[C@@H]1CCCNC1=O)NC(=O)[C@H](CC1CCCCC1)NC(=O)O[C@@H](c1ccccc1)C(F)(F)c1cccc(Cl)c1` [Compound A154] registered a 50% inhibitory concentration (IC50) of 334 nM. The IC50 values of the last two compounds are within 1.5-fold of each other. Compound `CCC[C@H](NC(=O)OC(c1ccccc1)C(F)(F)c1cccc(F)c1)C(=O)N[C@H](C=O)C[C@@H]1CCNC1=O` (some centres unmarked) [Compound A89] registered a half-inhibitory concentration (IC50) of 20 nM. `O=C(N[C@@H](CC1CCCCC1)C(=O)N[C@@H](C[C@@H]1CCNC1=O)C(=O)C(=O)NC1CC1)OC(c1ccccc1)C(F)(F)c1cccc(F)c1` (stereo partly drawn) [Compound A74, 2,2-difluoro-2-(3-fluorophenyl)-1-phenylethyl ((S)-3-cyclohexyl-1-(((S)-4-(cyclopropylamino)-3,4-dioxo-1-((S)-2-oxopyrrolidin-3-yl)butan-2-yl)amino)-1-oxopropan-2-yl)carbamate] displayed a half-inhibitory concentration (IC50) of 186 nM. With `CCCC[C@H](NC(=O)OC(c1ccccc1)C(F)(F)c1cccc(Cl)c1)C(=O)N[C@@H](C[C@@H]1CCNC1=O)C(=O)C(=O)O` (stereo partly drawn) [Compound A250, (3S)-3-((2S)-2-(((2-(3-chlorophenyl)-2,2-difluoro-1-phenylethoxy)carbonyl)amino)hexanamido)-2-oxo-4-((S)-2-oxopyrrolidin-3-yl)butanoic acid] the figure was 36 nM.

Take `CC(C)C[C@H](NC(=O)OC(c1ccc(Cl)cc1)C1(c2cccc(Cl)c2)CCNCC1)C(=O)N[C@@H](C[C@@H]1CCNC1=O)C(=O)C(=O)NC1CC1` (some centres unmarked) [Compound A92]: it took 1120 nM to reach half-maximal inhibition (IC50).

On to `O=C(N[C@@H](CC1CCCCC1)C(=O)N[C@@H](C[C@@H]1CCNC1=O)C(=O)C(=O)NC1CC1)O[C@@H](c1ccccc1)C(F)(F)c1cccc(F)c1` [Compound A236], for which the 50% inhibitory concentration (IC50) turned out to be 817 nM. Consider `O=C(N[C@@H](CC1CCCCC1)C(=O)N[C@@H](C[C@@H]1CCNC1=O)C(=O)C(=O)NC1CC1)O[C@@H](c1ccccc1)C(F)(F)c1cccc(Cl)c1` [Compound A116], for which it took 28.9 nM to reach half-maximal inhibition (IC50). Consider `O=C(N[C@@H](CC1CCCCC1)C(=O)N[C@@H](C[C@@H]1CCNC1=O)C(=O)C(=O)NC1CC1)OC(c1ccccc1)C(F)(F)c1cccc(Cl)c1` (some centres unmarked) [Compound A21], for which the 50% inhibitory concentration (IC50) was found to be 60 nM.
